Reference: patent publication US9850283B2, “Macrocyclic inhibitors of the PD-1/PD-L1 and CD80(B7-1)/PD-L1 protein/protein interactions” (BRISTOL-MYERS SQUIBB COMPANY, priority 2013, dated 2017)
Like-named read-outs stand apart in the source and are kept apart here. Starred links: 1 amine or outer side, 2 acyl side, 3 side chain; linkers in the order of their positions; H or OH if unused. Positions of bridges follow the written chain, without caps; N, C: chain ends. Non-standard residues stand in square brackets, D forms with d. Residues, ends and D or L forms follow the SMILES beside them. X13 = COc1ccc2c(O[C@@H]3C[C@@H](C(=O)[*:2])N([*:1])C3)nccc2c1; Pro(trans-4-cHex) = O=C(O)[C@@H]1C[C@@H](C2CCCCC2)CN1; Phe(3,4,5-F3) = N[C@@H](Cc1cc(F)c(F)c(F)c1)C(=O)O; Phe(4-F) = N[C@@H](Cc1ccc(F)cc1)C(=O)O; Pro(4R-NH2) = N[C@H]1CN[C@H](C(=O)O)C1; Bta = N[C@@H](Cc1csc2ccccc12)C(=O)O; Hyp = O=C(O)[C@@H]1C[C@@H](O)CN1; NMeF = CN[C@@H](Cc1ccccc1)C(=O)O; 2Pal = N[C@@H](Cc1ccccn1)C(=O)O; dNMeE = CN[C@H](CCC(=O)O)C(=O)O; AllylGly = C=CC[C@H](N)C(=O)O; NMeNle = CCCC[C@H](NC)C(=O)O; dPip = O=C(O)[C@H]1CCCCN1; NMeA = CN[C@@H](C)C(=O)O; Dab = NCC[C@H](N)C(=O)O; Dap = NC[C@H](N)C(=O)O; Sar = CNCC(=O)O

Assays:
[1] = biological target: T1, LK35.2-hPD-L1 cells / PE-labeled PD-1-Ig (Homo sapiens, UniProt Q9NZQ7); experiment: LK35.2-hPD-L1 cell binding high-content screening assay; format: cell-based
T1 construct: expressed in transfected cells; host or cells: LK35.2 mouse B cell line
Procedure, shortened: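 Mouse LK35.2 B cells stably overexpressing human PD-L1 were cultured overnight in RPMI with 10% FCS, then given compound and PE-labeled human PD-1-Ig (1 nM final) for 1 h at 37 °C. After three dPBS washes, bound fluorescence was quantified by high-content imaging.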

[2] = biological target: T2, Human PD-L1/PD-1 (Homo sapiens, UniProt Q9NZQ7); experiment: HTRF PD-1-Ig/PD-L1-His binding assay (human PD-L1)
T2 construct: made in house; host or cells: HEK293T
Procedure, shortened: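 The time-resolved fluorescence signal comes from Eu-cryptate anti-Ig (1 nM) and APC anti-His (20 nM) antibodies bound to a PD-1-Ig/PD-L1-His complex. Both partners lack transmembrane regions.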

[3] = cell binding assay, cell line not given, cluster symbol, read-out: CBA IC50 cluster
[4] = cluster symbol, read-out: HTRF IC50 cluster
[5] = cluster symbol, cell line of CBA not given (LK35.2-hPD-L1 or 293T-hPD-L1), read-out: CBA IC50 cluster

T2 sequence (Q9NZQ7 with tags, fused parts or gaps): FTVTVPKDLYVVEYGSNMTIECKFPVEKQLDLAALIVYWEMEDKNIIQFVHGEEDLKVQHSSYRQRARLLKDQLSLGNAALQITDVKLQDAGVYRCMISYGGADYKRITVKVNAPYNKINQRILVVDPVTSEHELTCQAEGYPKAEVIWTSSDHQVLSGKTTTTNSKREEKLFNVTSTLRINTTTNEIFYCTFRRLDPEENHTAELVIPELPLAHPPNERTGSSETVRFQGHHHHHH
T1 sequence (Q9NZQ7 19-290): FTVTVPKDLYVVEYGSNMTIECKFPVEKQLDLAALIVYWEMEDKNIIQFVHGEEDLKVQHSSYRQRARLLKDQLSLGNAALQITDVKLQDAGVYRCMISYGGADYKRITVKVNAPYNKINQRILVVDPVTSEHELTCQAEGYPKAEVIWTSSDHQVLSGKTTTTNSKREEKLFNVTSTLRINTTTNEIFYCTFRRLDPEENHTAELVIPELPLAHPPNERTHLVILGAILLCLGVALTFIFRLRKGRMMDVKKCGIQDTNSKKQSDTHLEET

| Compound | IC50 [1, 3] [nM] | IC50 [2, 4] [nM] | IC50 [1, 5] [nM] | IC50 ([1]; cell binding assay, cell line not given, value given instead of cluster, read-out: CBA IC50 value) [nM] | IC50 ([2]; value given instead of cluster, read-out: HTRF IC50 value) [nM] |
| --- | --- | --- | --- | --- | --- |
| CCCC[C@H]1C(=O)N(C)[C@@H](CCCC)C(=O)N[C@@H](CCCNC(=N)N)C(=O)N[C@H](C(=O)NCC(N)=O)CSCC(=O)N[C@@H](Cc2ccc(O)cc2)C(=O)N(C)[C@@H](C)C(=O)N[C@@H](CC(N)=O)C(=O)N2CCC[C@H]2C(=O)N[C@@H](CN)C(=O)N[C@@H](CCC(N)=O)C(=O)N2CCC[C@H]2C(=O)N[C@@H](Cc2c[nH]c3ccccc23)C(=O)N[C@@H](CO)C(=O)N[C@@H](Cc2c[nH]c3ccccc23)C(=O)N1C [Example 6021] ({CH2CO}-Y[NMeA]NP[Dap]QPWSW[NMeNle][NMeNle]RCG-NH2; thioether N-14) | 0.158 to 4.71 | 0.385 to 6.74 |  |  |  |
| CCCC[C@H]1C(=O)N(C)[C@@H](CCCC)C(=O)N[C@@H](CC(C)C)C(=O)N[C@H](C(=O)NCC(N)=O)CSCC(=O)N[C@@H](Cc2ccc(O)cc2)C(=O)N(C)[C@@H](C)C(=O)N[C@@H](CC(N)=O)C(=O)N2CCC[C@H]2C(=O)N[C@@H](CN)C(=O)N[C@@H](CC(C)C)C(=O)N2C[C@H](Oc3nccc4cc(OC)ccc34)C[C@H]2C(=O)N[C@@H](Cc2c[nH]c3ccccc23)C(=O)N[C@@H](CCN)C(=O)N[C@@H](Cc2c[nH]c3ccccc23)C(=O)N1C [Example 6048] ({CH2CO}-Y[NMeA]NP[Dap]L[X13]W[Dab]W[NMeNle][NMeNle]LCG-NH2; thioether N-14) | 4.78 to 72.9 | 6.76 to 30.3 |  |  |  |
| CCCC[C@H]1C(=O)N(C)[C@@H](CCCC)C(=O)N[C@@H](CCCNC(=N)N)C(=O)N[C@H](C(=O)NCC(N)=O)CSCC(=O)N[C@@H](Cc2ccc(O)cc2)C(=O)N(C)[C@@H](C)C(=O)N[C@@H](CC(N)=O)C(=O)N2CCC[C@H]2C(=O)N[C@@H](Cc2cnc[nH]2)C(=O)N[C@@H](CCC(=O)O)C(=O)N2C[C@H](O)C[C@H]2C(=O)N[C@@H](Cc2csc3ccccc23)C(=O)N[C@@H](CCN)C(=O)N[C@@H](Cc2c[nH]c3ccccc23)C(=O)N1C [Example 5052] ({CH2CO}-Y[NMeA]NPHE[Hyp][Bta][Dab]W[NMeNle][NMeNle]RCG-NH2; thioether N-14) | > 74.3 | > 30.5 |  |  |  |
| C=CC[C@@H]1NC(=O)[C@H](Cc2c[nH]c3ccccc23)NC(=O)[C@@H]2CCCN2C(=O)[C@H](CC(C)C)NC(=O)[C@H](Cc2c[nH]cn2)NC(=O)[C@@H]2CCCN2C(=O)[C@H](CC(N)=O)NC(=O)[C@H](C)N(C)C(=O)[C@H](Cc2ccccn2)NC(=O)CSC[C@@H](C(=O)NCC(N)=O)NC(=O)[C@H](CC=C)NC(=O)[C@H](CCCC)N(C)C(=O)[C@H](CCCC)N(C)C(=O)[C@H](Cc2c[nH]c3ccccc23)NC1=O [Example 7023] ({CH2CO}-[2Pal][NMeA]NPHLPW[AllylGly]W[NMeNle][NMeNle][AllylGly]CG-NH2; thioether N-14) | > 74.3 | > 30.5 |  |  |  |
| CCCC[C@H]1C(=O)N(C)[C@@H](CCCC)C(=O)N[C@@H](CC(=O)O)C(=O)N[C@H](C(=O)NCC(N)=O)CSCC(=O)N[C@@H](Cc2ccccc2)C(=O)N(C)[C@@H](C)C(=O)N[C@@H](CC(N)=O)C(=O)N2CCC[C@H]2C(=O)N[C@@H](Cc2cnc[nH]2)C(=O)N[C@@H](CC(C)C)C(=O)N(C)CC(=O)N[C@@H](Cc2c[nH]c3ccccc23)C(=O)N[C@@H](CO)C(=O)N[C@@H](Cc2c[nH]c3ccccc23)C(=O)N1C [Example 5030] ({CH2CO}-F[NMeA]NPHL[Sar]WSW[NMeNle][NMeNle]DCG-NH2; thioether N-14) | > 74.3 | > 30.5 |  |  |  |
| CCCC[C@H]1C(=O)N(C)CC(=O)N[C@@H](CC(=O)O)C(=O)N[C@@H](C(C)C)C(=O)N[C@@H](Cc2ccc(O)cc2)C(=O)N[C@@H](Cc2ccc(O)cc2)C(=O)N(C)CC(=O)N[C@@H](Cc2c[nH]c3ccccc23)C(=O)N[C@@H](Cc2ccc(O)cc2)C(=O)N[C@@H](CC(C)C)C(=O)N[C@H](C(=O)NCC(N)=O)CSCC(=O)N[C@@H](Cc2ccccc2)C(=O)N(C)[C@@H](Cc2ccccc2)C(=O)N1C [Example 3504] (HELM PEPTIDE1{[O=C(C[*:3])[*:2]].F.[meF].[CCCC[C@@H](C(=O)[*:2])N(C)[*:1]].[Sar].D.V.Y.Y.[Sar].W.Y.L.C.G.[am]}$PEPTIDE1,PEPTIDE1,1:R3-14:R3$$$V2.0) | > 74.3 | > 30.5 |  |  |  |
| CCCC[C@H]1C(=O)N(C)[C@@H](CCCC)C(=O)N[C@@H](CC(C)C)C(=O)N[C@H](C(=O)NCC(N)=O)CSCC(=O)N[C@@H](Cc2ccc(O)cc2)C(=O)N(C)[C@@H](C)C(=O)N[C@@H](CC(N)=O)C(=O)N2CCC[C@H]2C(=O)NCC(=O)N[C@@H](CCC(N)=O)C(=O)N2C[C@H](O)C[C@H]2C(=O)N[C@@H](Cc2c[nH]c3ccccc23)C(=O)N[C@@H](CO)C(=O)N[C@@H](Cc2c[nH]c3ccccc23)C(=O)N1C [Example 5127] ({CH2CO}-Y[NMeA]NPGQ[Hyp]WSW[NMeNle][NMeNle]LCG-NH2; thioether N-14) | 4.78 to 72.9 | 0.385 to 6.74 |  |  |  |
| CCCC[C@H]1C(=O)N(C)[C@@H](CCCC)C(=O)N[C@@H](CCN)C(=O)N[C@H](C(=O)NCC(N)=O)CSCC(=O)N[C@@H](Cc2ccc(O)cc2)C(=O)N(C)[C@@H](C)C(=O)N[C@@H](CC(N)=O)C(=O)N2CCC[C@H]2C(=O)N[C@@H](Cc2c[nH]cn2)C(=O)N[C@@H](CCC(=O)O)C(=O)N2C[C@H](C3CCCCC3)C[C@H]2C(=O)N[C@@H](Cc2c[nH]c3ccccc23)C(=O)N[C@@H](CCN)C(=O)N[C@@H](Cc2c[nH]c3ccccc23)C(=O)N1C [Example 14005] ({CH2CO}-Y[NMeA]NPHE[Pro(trans-4-cHex)]W[Dab]W[NMeNle][NMeNle][Dab]CG-NH2; thioether N-14) | 0.158 to 4.71 | 0.385 to 6.74 |  |  |  |
| CCCC[C@H]1C(=O)N(C)[C@@H](CCCC)C(=O)N[C@@H](CCCNC(=N)N)C(=O)N[C@H](C(=O)NCC(N)=O)CSCC(=O)N[C@@H](Cc2ccc(O)cc2)C(=O)N(C)[C@@H](C)C(=O)N[C@@H](CC(N)=O)C(=O)N2CCC[C@H]2C(=O)N[C@@H](Cc2cnc[nH]2)C(=O)N[C@@H](CC(C)C)C(=O)N2C[C@H](O)C[C@H]2C(=O)N[C@@H](Cc2c[nH]c3ccccc23)C(=O)N[C@@H](CCN)C(=O)N[C@@H](Cc2c[nH]c3ccccc23)C(=O)N1C [Example 1134] ({CH2CO}-Y[NMeA]NPHL[Hyp]W[Dab]W[NMeNle][NMeNle]RCG-NH2; thioether N-14) |  | 6.76 to 30.3 | 0.158 to 4.71 |  |  |
| CCCC[C@H]1C(=O)N(C)[C@H](CCC(=O)O)C(=O)N[C@@H](CC(N)=O)C(=O)N[C@@H](C(C)C)C(=O)N(C)[C@@H](Cc2ccccc2)C(=O)N[C@@H](Cc2ccc(O)cc2)C(=O)N2CCCC[C@@H]2C(=O)N[C@@H](Cc2c[nH]c3ccccc23)C(=O)N[C@@H](Cc2ccc(O)cc2)C(=O)N[C@@H](CCCCN)C(=O)N[C@H](C(=O)NCC(N)=O)CSCC(=O)N[C@@H](Cc2ccccc2)C(=O)N(C)[C@@H](Cc2ccccc2)C(=O)N1C [Example 3593] ({CH2CO}-F[NMeF][NMeNle][dNMeE]NV[NMeF]Y[dPip]WYKCG-NH2; thioether N-13) | 0.158 to 4.71 | 0.385 to 6.74 |  |  |  |
| CCCC[C@H]1C(=O)N(C)[C@@H](CCCC)C(=O)N[C@@H](CCN)C(=O)N[C@H](C(=O)NCC(N)=O)CSCC(=O)N[C@@H](Cc2ccc(O)cc2)C(=O)N(C)[C@@H](C)C(=O)N[C@@H](CC(N)=O)C(=O)N2CCC[C@H]2C(=O)N[C@@H](Cc2cnc[nH]2)C(=O)N[C@@H](CCC(=O)O)C(=O)N2C[C@H](O)C[C@H]2C(=O)N[C@@H](Cc2csc3ccccc23)C(=O)N[C@@H](CCN)C(=O)N[C@@H](Cc2c[nH]c3ccccc23)C(=O)N1C [Example 5055] ({CH2CO}-Y[NMeA]NPHE[Hyp][Bta][Dab]W[NMeNle][NMeNle][Dab]CG-NH2; thioether N-14) | > 74.3 | > 30.5 |  |  |  |
| CCCC[C@H]1C(=O)N2CCC[C@@H]2C(=O)N2C[C@H](N)C[C@H]2C(=O)N[C@@H](C(C)C)C(=O)N(C)[C@@H](Cc2ccccc2)C(=O)N[C@@H](Cc2ccc(O)cc2)C(=O)N2CCC[C@@H]2C(=O)N[C@@H](Cc2c[nH]c3ccccc23)C(=O)N[C@@H](Cc2ccc(O)cc2)C(=O)N[C@@H](CC(C)C)C(=O)N[C@H](C(=O)NCC(N)=O)CSCC(=O)N[C@@H](Cc2cc(F)c(F)c(F)c2)C(=O)N(C)[C@@H](Cc2ccccc2)C(=O)N1C [Example 3193] ({CH2CO}-[Phe(3,4,5-F3)][NMeF][NMeNle][dP][Pro(4R-NH2)]V[NMeF]Y[dP]WYLCG-NH2; thioether N-13) |  | 0.385 to 6.74 | 0.158 to 4.71 |  |  |
| CCCC[C@H]1C(=O)N(C)[C@@H](CCCC)C(=O)N[C@@H](CC(C)C)C(=O)N[C@H](C(=O)NCC(N)=O)CSCC(=O)N[C@@H](Cc2ccc(O)cc2)C(=O)N(C)[C@@H](C)C(=O)N[C@@H](CC(N)=O)C(=O)N2CCC[C@H]2C(=O)N[C@@H](Cc2c[nH]cn2)C(=O)NCC(=O)N2C[C@H](O)C[C@H]2C(=O)N[C@@H](Cc2c[nH]c3ccccc23)C(=O)N[C@@H](CO)C(=O)N[C@@H](Cc2c[nH]c3ccccc23)C(=O)N1C [Example 5122] ({CH2CO}-Y[NMeA]NPHG[Hyp]WSW[NMeNle][NMeNle]LCG-NH2; thioether N-14) |  |  |  | 134 | 34.8 |
| CCCC[C@H]1C(=O)N(C)[C@@H](CCCC)C(=O)N[C@@H](CCCNC(=N)N)C(=O)N[C@H](C(=O)NCC(N)=O)CSCC(=O)N[C@@H](Cc2ccc(F)cc2)C(=O)N(C)[C@@H](C)C(=O)N[C@@H](CC(N)=O)C(=O)N2CCC[C@H]2C(=O)N[C@@H](CN)C(=O)N[C@@H](CC(C)C)C(=O)N2C[C@H](O)C[C@H]2C(=O)N[C@@H](Cc2c[nH]c3ccccc23)C(=O)N[C@@H](CO)C(=O)N[C@@H](Cc2c[nH]c3ccccc23)C(=O)N1C [Example 7048] ({CH2CO}-[Phe(4-F)][NMeA]NP[Dap]L[Hyp]WSW[NMeNle][NMeNle]RCG-NH2; thioether N-14) | > 74.3 | 0.385 to 6.74 |  |  |  |
